Results: patent publication US6624188B1, “Method of treatment with compounds having retinoid-like activity and reduced skin toxicity and lacking teratogenic effects” (Allergan, Inc., priority 1992, dated 2003)

System: gestating ICR mice
Assay: in vivo teratology study, single oral dose on day 11 of gestation
Design: species or system mouse
Conditions: female, ICR, mouse, in vivo, 17 day of gestation; for # Litters Normal / Teratogenic Effects % Cleft Palate / Teratogenic Effects % Limb Defects / Teratogenic Effects % Resorbed: po
Protocol: The methodology of the study is described as follows:
ICR mice (Ace Animals, Boyertown, Pa.) were used. Mature male and virgin female ICR mice were housed in environmentally controlled rooms and acclimatized to a 12 hour light/dark cycle (light cycle 6 A.M. to 6 P.M.) for 2 weeks prior to use. All animals were maintained on Purina Lab Chow and tap water ad libitum. A group of 3-4 females was caged with a single male of proven fertility for 4 hours. Presence of a vaginal plug immediately afterward was regarded as evidence of successful mating, and this day was designated as day 0 of gestation.
[…] All animals were killed by cervical dislocation under mild ether anesthesia on day 17 of gestation. Upon laparotomy, the fetuses were examined for external malformations and weighed; one-half of each litter was then fixed in 95% ethanol and processed for staining of the skeleton by the rapid, alizarin red-S dye method. These preparations were examined under a dissection microscope to screen for abnormalities in the axial and the appendicular skeleton. The other half of each litter was fixed in Bouin's solution and examined by freehand razor serial sectioning to screen for anomalies of the brain, face, and palate.
Differences in dose-related incidence of malformations and resorptions were assessed by computing percentages of affected conceptuses among total implantation sites. The groups were compared statistically by a method based on Student's t-tests of arcs in square root transformed percentages. Values at 0.05 probability level were considered significant. The median effective dose was calculated by logarithmic curve fitting of the dose-response data.

Q: For C/C(=C\c1ccc(C(=O)O)cc1)c1ccc2c(c1)C(C)(C)CCC2(C)C [AGN 191183, reference compound], which “litters that exhibited teratogenic effects” value (0.1 mg/kg) is on record?
A: The value was 100%.

Q: What about the “# Litters Normal” value (0.01 mg/kg) of the same compound?
A: The value was 2.

Q: And the “Teratogenic Effects % Cleft Palate” value (0.01 mg/kg)?
A: Its value is 29%.

Q: What about the “Teratogenic Effects % Limb Defects” value (0.01 mg/kg) of the same compound?
A: Its value is 20%.

Q: What about the “Teratogenic Effects % Resorbed” value (0.01 mg/kg) of the same compound?
A: Its value is 3%.

Q: What about the “# Litters Normal” value (0.1 mg/kg) of the same compound?
A: Its value is 0.

Q: And the “Teratogenic Effects % Cleft Palate” value (0.1 mg/kg)?
A: The value was 100%.

Q: And the “Teratogenic Effects % Limb Defects” value (0.1 mg/kg)?
A: Its value is 100%.

Q: And the “Teratogenic Effects % Resorbed” value (0.1 mg/kg)?
A: Its value is 30%.

Q: And the “# Litters Normal” value (1 mg/kg)?
A: The value was 0.

Q: And the “Teratogenic Effects % Resorbed” value (1 mg/kg)?
A: The value was 100%.

Q: What about the “# Litters Normal” value (10 mg/kg) of the same compound?
A: Its value is 0.

Q: What about the “Teratogenic Effects % Resorbed” value (10 mg/kg) of the same compound?
A: Its value is 100%.
